Results taken from the supplement of paper PMC10307832.

Legend:
Experiment in all cases: relative viability (nuclei count vs DMSO), 5 days (fraction); higher = more cells survive
BEN = tested on: BEN
Procedure, shortened: (§1)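 Five library-drug doses in √10 steps were combined with a fixed anchor-drug dose, or a single drug was given alone, by pin tool to lung cancer cell lines in 1536-well plates the day after seeding. Nuclei were stained and counted after 5 days. Relative viability is the nuclei count in treated wells over that in vehicle wells, taken as the median of duplicate plates.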

CAL-12T = tested on: CAL-12T
Procedure, shortened: as §1

COR-L23 = tested on: COR-L23
Procedure, shortened: as §1

LU99A = tested on: LU99A
Procedure, shortened: as §1

LXF-289 = tested on: LXF-289
Procedure, shortened: as §1

NCI-H1355 = tested on: NCI-H1355
Procedure, shortened: as §1

NCI-H1437 = tested on: NCI-H1437
Procedure, shortened: as §1

NCI-H1563 = tested on: NCI-H1563
Procedure, shortened: as §1

NCI-H1650 = tested on: NCI-H1650
Procedure, shortened: as §1

NCI-H1651 = tested on: NCI-H1651
Procedure, shortened: as §1

NCI-H1666 = tested on: NCI-H1666
Procedure, shortened: as §1

NCI-H1755 = tested on: NCI-H1755
Procedure, shortened: as §1

NCI-H1993 = tested on: NCI-H1993
Procedure, shortened: as §1

NCI-H2085 = tested on: NCI-H2085
Procedure, shortened: as §1

NCI-H2087 = tested on: NCI-H2087
Procedure, shortened: as §1

NCI-H2170 = tested on: NCI-H2170
Procedure, shortened: as §1

NCI-H460 = tested on: NCI-H460
Procedure, shortened: as §1

NCI-H520 = tested on: NCI-H520
Procedure, shortened: as §1

PC-14 = tested on: PC-14
Procedure, shortened: as §1

SK-MES-1 = tested on: SK-MES-1
Procedure, shortened: as §1

Question: What does the source list for CN1CCN(CCOc2cc(OC3CCOCC3)c3c(Nc4c(Cl)ccc5c4OCO5)ncnc3c2)CC1 [Saracatinib] + COc1cc2c(Oc3ccc(NC(=O)C4(C(=O)Nc5ccc(F)cc5)CC4)cc3F)ccnc2cc1OCCCN1CCOCC1 [Foretinib] (partner 0.25 µM)?
Answer: relative viability (BEN; first compound 0.02 µM): 0.753; relative viability (BEN; first compound 0.6325 µM): 0.707; relative viability (BEN; first compound 2 µM): 0.476; relative viability (CAL-12T; first compound 0.02 µM): 1.12; relative viability (CAL-12T; first compound 0.2 µM): 1.02; relative viability (CAL-12T; first compound 0.6325 µM): 1.33; relative viability (CAL-12T; first compound 2 µM): 1.18; relative viability (COR-L23; first compound 0.02 µM): 0.905; relative viability (COR-L23; first compound 0.2 µM): 0.917; relative viability (COR-L23; first compound 0.6325 µM): 0.87; relative viability (COR-L23; first compound 2 µM): 0.886; relative viability (LU99A; first compound 0.02 µM): 0.811; relative viability (LU99A; first compound 0.2 µM): 0.562; relative viability (LU99A; first compound 0.6325 µM): 0.831; relative viability (LU99A; first compound 2 µM): 0.536; relative viability (LXF-289; first compound 0.02 µM): 0.922; relative viability (LXF-289; first compound 0.2 µM): 0.748; relative viability (LXF-289; first compound 0.6325 µM): 1.04; relative viability (LXF-289; first compound 2 µM): 0.891; relative viability (NCI-H1355; first compound 0.02 µM): 0.965; relative viability (NCI-H1355; first compound 0.2 µM): 0.991; relative viability (NCI-H1355; first compound 0.6325 µM): 1.1; relative viability (NCI-H1355; first compound 2 µM): 0.934; relative viability (NCI-H1437; first compound 0.02 µM): 1.27; relative viability (NCI-H1437; first compound 0.2 µM): 1.22; relative viability (NCI-H1437; first compound 0.6325 µM): 1.3; relative viability (NCI-H1437; first compound 2 µM): 1.3; relative viability (NCI-H1563; first compound 0.02 µM): 0.924; relative viability (NCI-H1563; first compound 0.2 µM): 0.782; relative viability (NCI-H1563; first compound 0.6325 µM): 0.76; relative viability (NCI-H1563; first compound 2 µM): 0.649; relative viability (NCI-H1650; first compound 0.02 µM): 0.948; relative viability (NCI-H1650; first compound 0.2 µM): 0.775; relative viability (NCI-H1650; first compound 0.6325 µM): 0.46; relative viability (NCI-H1650; first compound 2 µM): 0.456; relative viability (NCI-H1651; first compound 0.02 µM): 0.844; relative viability (NCI-H1651; first compound 0.2 µM): 0.561; relative viability (NCI-H1651; first compound 0.6325 µM): 0.908; relative viability (NCI-H1651; first compound 2 µM): 0.657; relative viability (NCI-H1666; first compound 0.02 µM): 1.04; relative viability (NCI-H1666; first compound 0.2 µM): 0.836; relative viability (NCI-H1666; first compound 0.6325 µM): 1.27; relative viability (NCI-H1666; first compound 2 µM): 1.14; relative viability (NCI-H1755; first compound 0.02 µM): 0.936; relative viability (NCI-H1755; first compound 0.2 µM): 0.849; relative viability (NCI-H1755; first compound 0.6325 µM): 0.821; relative viability (NCI-H1755; first compound 2 µM): 0.792; relative viability (NCI-H1993; first compound 0.02 µM): 0.692; relative viability (NCI-H1993; first compound 0.2 µM): 0.625; relative viability (NCI-H1993; first compound 0.6325 µM): 0.696; relative viability (NCI-H1993; first compound 2 µM): 0.552; relative viability (NCI-H2085; first compound 0.02 µM): 0.986; relative viability (NCI-H2085; first compound 0.2 µM): 0.839; relative viability (NCI-H2085; first compound 0.6325 µM): 0.751; relative viability (NCI-H2085; first compound 2 µM): 0.668; relative viability (NCI-H2087; first compound 0.02 µM): 1.07; relative viability (NCI-H2087; first compound 0.2 µM): 0.874; relative viability (NCI-H2087; first compound 0.6325 µM): 1.1; relative viability (NCI-H2087; first compound 2 µM): 1.07; relative viability (NCI-H2170; first compound 0.02 µM): 0.989; relative viability (NCI-H2170; first compound 0.2 µM): 0.705; relative viability (NCI-H2170; first compound 0.6325 µM): 1.03; relative viability (NCI-H2170; first compound 2 µM): 0.872; relative viability (NCI-H460; first compound 0.02 µM): 1.02; relative viability (NCI-H460; first compound 0.2 µM): 0.882; relative viability (NCI-H460; first compound 0.6325 µM): 1.06; relative viability (NCI-H460; first compound 2 µM): 0.867; relative viability (NCI-H520; first compound 0.02 µM): 0.761; relative viability (NCI-H520; first compound 0.6325 µM): 0.611; relative viability (NCI-H520; first compound 2 µM): 0.523; relative viability (PC-14; first compound 0.02 µM): 0.986; relative viability (PC-14; first compound 0.2 µM): 0.721; relative viability (PC-14; first compound 0.6325 µM): 0.612; relative viability (PC-14; first compound 2 µM): 0.209; relative viability (SK-MES-1; first compound 0.02 µM): 0.94; relative viability (SK-MES-1; first compound 0.2 µM): 0.772; relative viability (SK-MES-1; first compound 0.6325 µM): 0.798; relative viability (SK-MES-1; first compound 2 µM): 0.533
